US20120329879A1, “BETA-ADRENERGIC RECEPTOR AGONISTS AND USES THEREOF” (THE UNIVERSITY OF TENNESSEE RESEARCH FOUNDATION, priority 2010, published 2012)
Entries after “also recorded” stand apart in the source; their conditions may differ.

Columns and labels:
[1] = system: electrical activity of the retina of diabetic rats; test: Electroretinogram (ERG) analyses in diabetic rats; format: in vivo, rat
Description: Each month of the experiment, electroretinogram (ERG) analyses were performed on rats from the three groups. Electroretinogram analyses were done to evaluate changes in electrical activity of the retina and as a measure of drug effectiveness. For the electroretinogram analyses, rats were dark adapted overnight. The following morning, the rats were anesthetized using an intraperitoneal injection of a ketamine (0.6 ml/kg body weight) and xylazine (0.375 ml/kg body weight) cocktail. The pupil of each eye was fully dilated using a 1% tropicamide solution (Alcon). To protect the eye and assist in maintaining a good electrical connection, a drop of methylcellulose solution was added to each eye (Celluvisc; Allergan, Irvine, Calif.). Body temperature was maintained at 37° C. with a water-based heating pad. The electroretinogram responses were recorded from both eyes simultaneously using platinum wire corneal electrodes, a forehead reference electrode, and ground electrode in the tail. The electroretinogram stimuli were delivered via the Diagnosys LLC system. All animals tested recovered from anesthesia after the electroretinogram recording sessions. No animals with gross cataract were used for electroretinogram analyses.
Electroretinogram responses were recorded in response to brief (4 ms) white LED and then from the Xenon arc lamp delivered at 2.1-second intervals for dim stimuli and 35 second frames for brighter stimuli. The range of stimulus intensities extended from −4.0 to 1.0 log cd*s/m2 for analysis of the b-wave amplitudes. Electroretinogram waveforms were recorded with a bandwidth of 0.3-500 Hz and sampled at 2 kHz by a digital acquisition system (Diagnosys) and were analyzed using MatLab (The MathWorks, Natick, Mass.). […]
For assessment of the oscillatory potentials, stimuli were administered at 3 log (cd*s/m2). Data analysis for the oscillatory potentials was obtained using MatLab software with a digital band-pass filter set for 60-300 Hz and the peak wavelets of the 4 wavelets were measured from trough to peak. […]

cleaved caspase 3 = test: Cleaved caspase 3 ELISA of retinal lysates of diabetic rats; format: in vivo, rat; settings: Compound 2 eye drops
From the text: To determine the TNF concentration (Pierce, Rockford Ill.) and levels of cleaved caspase 3 (Cellular Signaling, Danvers, Mass.), ELISA analyses were done according to manufacturers instructions, except that equal protein was loaded into the cleaved caspase 3 ELISA so the optical density numbers can be used.

[2] = system: Human retinal endothelial cells (HREC); test: TNFalpha and cleaved caspase 3 ELISA in retinal endothelial cells cultured in high glucose; format: cell-based; settings: 50 nM
Description: Human retinal endothelial cells (HREC) were purchased from Cell Systems (Kirkland, Wash.) and grown in either basal (5 mM glucose) or growth (25 mM glucose) media. Both media is supplemented with 10% FBS and antibiotics. The day prior to experiments, cells are serum-starved for 18-24 hours. Rat Müller cells (rMC-1) were grown in DMEM medium with 5 mM glucose or 25 mM glucose. Media was supplemented with 10% FBS and antibiotics. Cells were serum starved prior to all experiments for 18-24 hours.
Human retinal endothelial cells (HREC) and rat Muller cells (rMC-1) in both glucose conditions were treated with Compound 2 at doses of 10 nM, 50 nM, 100 nM, 1 μM, and 10 μM of Compound 2. Cells of each type were grown in medium containing L-glucose to control for changes in osmolarity. 10 μM isoproterenol was also used for each condition as a positive control. Müller cells were treated for 1 hour and 24 hours, while HREC were treated for 30 and 60 minutes.
Following treatment, cells were collected into lysis buffer containing protease and phosphatase inhibitors. ELISA analyses for TNFalpha, cleaved caspase 3, and PKA were done according to manufacturers instructions. Data is compared against non-treated cells and cells at the various doses. A Kruskal-Wallis test is done, with a Dunn's test for secondary analyses. […] The dose that decreases TNFalpha and caspase 3 levels also increases PKA activity.

left ventricle = test: Heart left ventricle sections and collagen staining in type I diabetic rats; format: in vivo, rat; settings: type I diabetic rats treated daily with 1 mM
From the text: Staining is for collagen intensity (FIG. 11B), which is increased in diabetes. Analyses on the rats were done for acute changes (8 weeks of diabetes, 45 rats) and chronic changes (8 months of diabetes, 45 rats). In addition to all measurements on the retina, tissue sections of the heart were taken at 8 weeks and 8 months to insure that there is no hypertrophy of the ventricles due to the drug. A Western blot for myosin light chain, a surrogate marker of cardiovascular hypertrophy was also performed. Each month, all rats receive 2 analyses of visual function, electroretinogram (ERG) and live retinal imaging using Optical Coherence […] (OCT). Retinal thickness and live retinal imaging were assessed using rodent OCT. This technology allows for non-invasive visualization of each layer of the retina for multiple testing of the same animal.

[3] = Plasma levels of Compound 2 after intravenous or topical administration to rats (LC/MS/MS); format: in vivo; settings: rat
Description: B/PK was characterized following intravenous administration to rats. Following drug administration, blood samples (2-300 μL) were withdrawn from the jugular vein catheter at regular intervals after dosing (5, 15, 30, 45 minutes and 1, 2, 4, 8, 16, and 24 hours) into K3-EDTA anti-coagulated sampling tubes. Plasma was obtained by centrifugation and stored at −80° C. until analysis. The heart, lung and spleen were harvested in order to determine the tissue distribution of Compound 2. Cumulative urinary samples were collected over 24 hours post-dose and stored at −80° C. until analysis. B/PK was characterized following topical administration. Following drug administration to rats, eyes were enucleated, irrigated with saline, and vitreous humor aspirated from the inner region of the vitreous chamber using an 18-gauge needle. Blood samples were obtained simultaneously in order to determine the extent of systemic exposure following topical administration. Vitreous humor and blood samples were obtained at regular intervals after dosing. Time points were determined based upon concentration time profiles obtained following intravenous administration of Compound 2. For data analyses B/PK parameters were derived from the obtained plasma, vitreous humor, urine and feces concentration data by standard non-compartmental analysis. Terminal half-life was determined as the ratio of ln 2 divided by λz, the negative of the slope of the linear regression of the natural log concentration vs. time profile during the terminal phase. Systemic and ocular exposure was determined as plasma or ocular area under the concentration-time curve (AUC) using the trapezoidal rule. Compound 2 concentration determination and metabolite profiling is conducted using a validated LC/MS/MS assay based on the methodology described (14-15). The LC-MS/MS system comprises a Shimadzu HPLC system (Kyoto, Japan), API-4000 Q Trap tandem mass spectrometer (Foster City, Calif., USA) equipped with a turbo ion-spray and a HTC-PAL autosampler (Leap Technologies, Carrboro, N.C., USA).

COc1cc(CCNC[C@H](O)c2ccc(O)c(O)c2)cc(OC)c1OC.Cl (single isomer, unassigned) [Compound 2, 4-[1-hydroxy-2-(1-ethylamino-3-,4-,5-trimethoxyphenyl)ethyl]benzene-1,2-diol hydrochloride]
retinal function (ERG), delayed treatment ([1]; 6 month diabetic rats receiving Compound 2 therapy for 2 months): had improved retinal function
B-wave amplitude ([1]; daily topical 1 mM from one week after STZ, ERG after 6 weeks): inhibited the loss of B-wave amplitude
ERG amplitudes (a-wave, b-wave, oscillatory potentials) ([1]; diabetic rats, topical 1 mM daily from onset, over 8 months, hydrochloride): inhibited the loss of amplitude of B-wave and oscillatory potentials; also recorded: can inhibit the loss of all three components of the ERG over the entire 8-month period
cleaved caspase 3 levels in retinal lysates (cleaved caspase 3): reduced following treatment
reduction of TNFalpha levels versus not-treated controls ([2]; REC in 25 mM glucose): 23%
reduction of caspase 3 levels versus not-treated controls ([2]; REC in 25 mM glucose): 54%
TNFalpha levels, in words ([2]; REC in high glucose, vs non-treated): significantly reduced
cleaved caspase 3 levels, in words ([2]; REC in high glucose, vs non-treated, hydrochloride): significantly decreased caspase 3 levels; also recorded: significantly reduced levels of cleaved caspase 3
left ventricle compared to untreated diabetic rats (left ventricle): no difference in the left ventricle
concentration at 45 min ([3]; Lewis, plasma, over 45 minutes, dose and route not stated): ~6 ng/mL
concentration at 1 h ([3]; plasma, intravenous or topical, 10 mg/kg, limit of detection, read-out: plasma level after 1 hour): < 2.5 ng/mL
time of clearance from plasma ([3]; intravenous, 1 mg/kg): < 1 h
plasma concentration ([3]; intravenous, 10 mg/kg): ~1000 ng/mL
time of clearing from plasma ([3]; intravenous, 10 mg/kg): ≤ 30 min
plasma concentration at the 2 time points with detection ([3]; topical, 10 mg/kg): ~80 ng/mL
detection in plasma after topical delivery ([3]; topical, therapeutic dose 1 mM or 1 mg/kg, hydrochloride): did not result in detectable Compound 2 in plasma; also recorded: below the limits of detection; also recorded: not detected
Plasma concentration at start of decline ([3]; dose and route not stated): about 100 ng/ml
